In patent US9115122B2, “Non-ATP dependent inhibitors of extracellular signal-regulated kinase (ERK)” (UNIVERSITY OF MARYLAND, BALTIMORE, priority 2012, dated 2015):
Where two headings read alike, the source gives them in different places.

Columns and labels:
HeLa cells = test: Dose-response growth inhibition (GI50) of select compounds; type: cell-based
Jurkat cells = test: as above; type: cell-based
A375 melanoma cells [1] = test: as above; type: cell-based; details: two days
Method: (§1) An example of the dose response curve for compound 30h and the BRaf inhibitor PLX4032 for inhibiting the growth of melanoma cell lines is shown in FIG. 14. […] A summary of GI50 values for select compounds along with comparisons to know ERK pathway inhibitors in various cell lines is shown in Table 13. […] First, thiazolidinedione compounds have been identified to be selective inhibitors of cancer cell lines containing activated ERK signaling. Second, changes in the 4-ethoxyphenyl component of the parent compound 76 improve selectivity and potency for inhibiting melanoma cell growth. Third, compound 30h is a potent inhibitor of melanoma cell lines that have become resistant to the clinically relevant BRaf and MEK inhibitors. […] Lastly, 30h is as potent as the ATP-competitive pyrazolopyridazinamine ERK inhibitor (FR180204) in preventing melanoma cell proliferation and provides an alternative non-ATP-dependent approach to target cancer cells that are dependent on active ERK signaling.
(§2) Melanoma cells (A375, SK-MEL-28, and RPMI7951) were seeded at a density of 5,000 per well in 96-well plate. After overnight incubation, cells were treated with varying doses of PLX4032 (A) or 31h (B) for two days. Cell viability was determined by the addition of Cell Titer-Blue Reagent (20 μL/well) followed by 2 hours of incubation at 37° C. after which fluorescence was recorded (555/585 nm). Cell viability was expressed as percentage of vehicle control and data represent the average of three individual experiments.

SK-MEL-28 melanoma cells [2] = test: as above; type: cell-based; details: two days
Method: as §1, §2

RPMI7951 melanoma cells [3] = test: as above; type: cell-based; details: two days
Method: as §1, §2

[4] = system: serum response element (SRE); test: SRE promoter luciferase assay, HeLa cells (Example 4); type: cell-based; details: EGF
Method: (§3) HeLa cells were seeded in 24-well plates (4×10^4 cells/well) and incubated 18 hours prior to achieve ˜60-70% confluent. Cells were transfected with activator protein-1 (pAP1(PMA)-TA-Luc; Clontech) or the serum response element (pGL4.33-SRE; Promega) luciferase reporter plasmids (250 ng/well) using Lipofectamine™ (Invitrogen). After 16 hours, cells were treated with increasing amount of compounds as indicated for 20 minutes, followed by stimulation with EGF (25 ng/mL) for 4.5 hr. The luciferase activity in the cell extracts was determined with a Dual Luciferase Assay System (Promega) according to the manufacturer's instructions. Luciferase activities were monitored with a Lumat LB 9507 luminometer (Berthold Technology) and data were normalized to the amount of protein in each sample.

[5] = system: HeLa cervical carcinoma cells; test: Cell proliferation WST-1 assay, single dose (Example 4); type: cell-based; details: 100 μM, 48 hours
Summary of the method: (§4)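 Tetrazolium (WST-1) read-out of proliferation, values relative to DMSO-only wells; cells treated for 48 h after 16-20 h recovery.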

RPMI-7951 melanoma cells = test: as above; type: cell-based; details: 100 μM, 48 hours
Summary of the method: as §4

[6] = system: Jurkat T-cell leukemia cells; test: as above; type: cell-based; details: 100 μM, 48 hours
Summary of the method: as §4

A375 melanoma cells [7] = test: as above; type: cell-based; details: 100 μM, 48 hours
Summary of the method: as §4

SK-MEL-28 melanoma cells [8] = test: as above; type: cell-based; details: 100 μM, 48 hours
Summary of the method: as §4

HL-60 leukemic cells = test: as above; type: cell-based; details: 100 μM, 48 hours
Summary of the method: as §4

[9] = basic group replacing the ethylamine group; cited from earlier work
[10] = system: HeLa cervical carcinoma cells; test: Cell proliferation, fluorescent Cell Titer Blue Assay (Example 1); type: cell-based; details: Homo sapiens, 48 hours
Method: (§5) FIG. 5. Dose dependent inhibition of cancer cell proliferation in vitro by SF-3-026 and analogs. A375 (closes circles), RPM17951 (closed squares), HeLa (open circles), or Jurkat (open squares) cells were treated for 48 hours with indicated concentration of (a) SF-3-026, (b) SF-2-027, (c) SF-2-029, or (d) SF-2-030 and cell proliferation was assessed by the fluorescent Cell Titer Blue Assay. The data were reproduced in 3 separate experiments.
(§6) Cells were seeded at 25,000 cells/well in 96-well plate and cultured overnight. Cells were treated for 24 hours with various concentrations of compounds and cell viability or caspase 3/7 activity were measured according to manufacturer's instructions using the fluorescent Cell Titer Blue Assay (Promega) or luminescent Caspase 3/7 Glo Assay (Promega).
(§7) It was next determined whether inhibition of AP-1 proteins by SF-3-026 and analogs affected the proliferation of cancer cells driven by mutations that constitutively activate the ERK1/2 pathway. For these experiments, A375 and RPMI7951 melanoma cells, which have a valine to glutamate mutation on residue 600 in BRaf that causes constitutive ERK1/2 activation, were chosen. Moreover, RPMI7951 cells are resistant to clinically used BRaf inhibitors due to overexpression of MAP3K8 (the gene encoding COT/Tp12) that re-activates ERK1/2 signaling. Both melanoma cells lines were treated with varying doses of SF-3-026 or analogs and cell viability was compared to HeLa cervical carcinoma and Jurkat T-cell leukemia cells, which are p53 defective but contain no known activating mutations in the ERK1/2 pathway.

[11] = system: Jurkat T-cell leukemia cells; test: as above; type: cell-based; details: Homo sapiens, 48 hours
Method: as §5, §6, §7

A375 melanoma cells [12] = test: as above; type: cell-based; details: Homo sapiens, A-375; 48 hours
Method: as §5, §6, §7

RPMI7951 melanoma cells [13] = test: as above; type: cell-based; details: Homo sapiens, RPMI-7951; 48 hours
Method: as §5, §6, §7

[14] = system: MEK1-induced AP-1 promoter activity; test: AP-1 promoter luciferase assay, HeLa cells expressing active MEK1 mutant; type: cell-based; details: Homo sapiens, 4 hours, read-out: IC50 inhibition of MEK1-induced AP-1 promoter activity
Method: FIG. 4. Compound SF-3-026 and analogs inhibit SRE and AP-1 transcription factor function. (a) HeLa cells were transfected with constructs containing SRE or AP-1 promoters driving luciferase expression and then stimulated with EGF in the presence or absence of SF-3-026 for 4 hours followed by measurements of luciferase activity. Cells treated with U0126 were used as a positive inhibitor control. (b and c) HeLa cells were prepared and treated as in (a) with the indicated concentrations of SF-3-026 or analogs for 4 hours followed by the measurement of luciferase activity regulated by the SRE (b) or AP-1 (c) promoters. Data in (b and c) were normalized to EGF-only treatment and represent the mean and standard deviation from three independent experiments. (d) Compound SF-3-026 and analogs inhibit MEK1-induced AP-1 transcription factor function. HeLa cells were transfected with the AP-1 promoter construct and a constitutively active MEK1 mutant in the presence (10 μM) or absence of the MEK1/2 inhibitor (U0126) or an ATP-competitive ERK inhibitor (ERKi) for 4 hours followed by measurements of luciferase activity. (e) Cells expressing the AP-1 promoter and an active MEK-1 construct were treated with the indicated concentrations of SF-3-026 or analogs for 4 hours followed by the measurement of luciferase activity. Data in (e) were normalized to active MEK1-only treatment and represent the mean and standard deviation from three independent experiments.
as §3, with “(40,000” for “(4×10^4”, “hours” for “hours prior”, “pre-treated” for “treated”, “varying amounts” for “increasing amount”, “hr. In some experiments, cells transfected with the pAP1(PMA)-TA-Luc promoter and a constitutively active MEK1 mutant cDNA were treated with varying amounts of compounds during the last 4 hours of incubation.” for “hr.”, “sample. […]” for “sample.”

| SMILES | GI50 (A375 melanoma cells [1]; Homo sapiens, A-375, 48 h) [µM] | GI50 (SK-MEL-28 melanoma cells [2]; Homo sapiens, SK-MEL-28, 48 h) [µM] | GI50 (RPMI7951 melanoma cells [3]; Homo sapiens, RPMI-7951, 48 h) [µM] | Cell Viability (% of Vehicle) HeLa [5] | Cell Viability (% of Vehicle) RPMI-7951 (RPMI-7951 melanoma cells) | Cell Viability (% of Vehicle) Jurkat [6] | Cell Viability (% of Vehicle) A375 (A375 melanoma cells [7]) | Cell Viability (% of Vehicle) SK-MEL-28 (SK-MEL-28 melanoma cells [8]) | Cell Viability (% of Vehicle) HL-60 (HL-60 leukemic cells) | pKa [9] | also measured |
| --- | --- | --- | --- | --- | --- | --- | --- | --- | --- | --- | --- |
| CCOc1ccc(/C=C2\SC(=O)N(CCCN)C2=O)cc1 [Compound 22a, (Z)-3-(3-aminopropyl)-5-(4-ethoxybenzylidene)thiazolidine-2,4-dione] | 24 | 46 | 17 | 12 ± 2 % of Vehicle | 0.6 ± 0.1 % of Vehicle | 9.0 ± 2 % of Vehicle | 0.7 ± 0.1 % of Vehicle | 0.5 ± 0.01 % of Vehicle | 8.0 ± 72 % of Vehicle |  | inhibition of ERK-mediated SRE promoter activity [4]: selective inhibition of the SRE promoter activity |
| CCOc1ccc(/C=C2\SC(=O)N(Cc3cnc[nH]3)C2=O)cc1 [Compound 28a, (Z)-3((1H-imidazol-5-yl)methyl)-5-(4-ethoxybenzylidene)thiazolidine-2,4-dione] |  |  |  | 80 ± 4 % of Vehicle | 70 ± 2 % of Vehicle | 106 ± 6 % of Vehicle | 101 ± 2 % of Vehicle | 74 ± 6 % of Vehicle | 123 ± 20 % of Vehicle | ~7 |  |
| CCOc1ccc(/C=C2\SC(=O)N(Cc3cccc(N)n3)C2=O)cc1 [Compound 28b, (Z)-3-((6-aminopyridin-2-yl)methyl)-5-(4-ethoxybenzylidene)thiazolidine-2,4-dione] |  |  |  | 87 ± 6 % of Vehicle | 101 ± 4 % of Vehicle | 105 ± 5 % of Vehicle | 111 ± 1 % of Vehicle | 86 ± 3 % of Vehicle | 107 ± 26 % of Vehicle | ~6 |  |
| [H]/N=C(/N)NCCN1C(=O)SC(=Cc2ccc(OCC)cc2)C1=O [Compound 28c, (Z)-1-(2-(5-(4-ethoxybenzylidene)-2,4-dioxothiazolidin-3-yl)ethyl)guanidine] |  |  |  | 17 ± 2 % of Vehicle | 42 ± 6 % of Vehicle | 6.5 ± 0.5 % of Vehicle | 31 ± 4 % of Vehicle | 55 ± 6 % of Vehicle | 20 ± 6 % of Vehicle | ~12 |  |
| Nc1[nH]nc2nnc(-c3c(-c4ccccc4)nn4ccccc34)cc12 [FR180204, reference compound] |  |  |  |  |  |  |  |  |  |  | GI50 (HeLa cells): > 10 µM; GI50 (Jurkat cells): > 10 µM; GI50 (A375 melanoma cells [1]): 5 µM; GI50 (SK-MEL-28 melanoma cells [2]): 4 µM; GI50 (RPMI7951 melanoma cells [3]): 11 µM |
| Cc1ccc(S(=O)(=O)OC2C=CS(=O)(=O)C2)cc1 (stereo not drawn) [SF-3-027] |  |  |  |  |  |  |  |  |  |  | GI50 [10]: 22 µM; GI50 [11]: > 50 µM; GI50 (A375 melanoma cells [12]): 5.5 µM; GI50 (RPMI7951 melanoma cells [13]): 3.1 µM; IC50 [14]: ~40 µM |

More lines, main results first:

| GI50 (A375 melanoma cells [1]; Homo sapiens, A-375, 48 h) [µM] | GI50 (SK-MEL-28 melanoma cells [2]; Homo sapiens, SK-MEL-28, 48 h) [µM] | GI50 (RPMI7951 melanoma cells [3]; Homo sapiens, RPMI-7951, 48 h) [µM] | SMILES | Cell Viability (% of Vehicle) HeLa [5] | Cell Viability (% of Vehicle) RPMI-7951 (RPMI-7951 melanoma cells) | Cell Viability (% of Vehicle) Jurkat [6] | Cell Viability (% of Vehicle) A375 (A375 melanoma cells [7]) | Cell Viability (% of Vehicle) SK-MEL-28 (SK-MEL-28 melanoma cells [8]) | Cell Viability (% of Vehicle) HL-60 (HL-60 leukemic cells) | pKa [9] | also measured |
| --- | --- | --- | --- | --- | --- | --- | --- | --- | --- | --- | --- |
| 0.03 | 0.17 | 20 | Cn1cnc2c(F)c(Nc3ccc(Br)cc3Cl)c(C(=O)NOCCO)cc21 [AZD6244, reference compound] |  |  |  |  |  |  |  | GI50 (HeLa cells; Homo sapiens, HeLa): > 10 µM; GI50 (Jurkat cells; Homo sapiens, Jurkat): > 10 µM |
| 0.07 | 0.38 | 11 | CCCS(=O)(=O)Nc1ccc(F)c(C(=O)c2c[nH]c3ncc(-c4ccc(Cl)cc4)cc23)c1F [PLX4032, reference compound] |  |  |  |  |  |  |  | GI50 (HeLa cells; Homo sapiens, HeLa): > 10 µM; GI50 (Jurkat cells; Homo sapiens, Jurkat): > 10 µM |
